Among the data in patent US7601716B2, “Pyridopyrazines and derivatives thereof as ALK and c-Met inhibitors” (Cephalon, Inc., priority 2006, dated 2009) are IC50 values, retold here.

In the assay the target is baculovirus-expressed ALK (Homo sapiens, UniProt Q9UM73). Nature of the assay: ALK Kinase Assay (ELISA/TRF, PLC-γ substrate). Also: 1 µM ATP (Km level). The settings on record: read-out: ALK Kinase Inhibition (IC50). It is filed as biochemical. Here is the method: Example compounds were tested for their ability to inhibit the kinase activity of baculovirus-expressed ALK using a modification of the ELISA protocol reported for trkA in Angeles, T. S. et al., Anal. Biochem. 1996, 236, 49-55, which is incorporated herein by reference in its entirety. Phosphorylation of the substrate, phospholipase C-gamma (PLC-γ) generated as a fusion protein with glutathione S-transferase (GST) as reported in Rotin, D. et al., EMBO J. 1992, 11, 559-567, which is incorporated herein by reference in its entirety, was detected with a europium-labeled anti-phosphotyrosine antibody and measured by time-resolved fluorescence (TRF). Briefly, each 96-well plate was coated with 100 μL/well of 10 μg/mL substrate (phospholipase C-γ) in Tris-buffered saline (TBS). […] The reaction was initiated by adding enzyme (30 ng/ml ALK) and was allowed to proceed at 37° C. for 15 minutes. Detection of the phosphorylated product was performed by adding 100 μl/well of Eu-N1 labeled PT66 antibody (Perkin Elmer # AD0041). Incubation at 37° C. then proceeded for one (1) hour, followed by addition of 100 μL enhancement solution (Wallac #1244-105). The plate was gently agitated and after thirty minutes, the fluorescence of the resulting solution was measured using the EnVision 2100 (or 2102) multilabel plate reader (Perkin Elmer).
Chain of baculovirus-expressed ALK (Q9UM73 19-1620): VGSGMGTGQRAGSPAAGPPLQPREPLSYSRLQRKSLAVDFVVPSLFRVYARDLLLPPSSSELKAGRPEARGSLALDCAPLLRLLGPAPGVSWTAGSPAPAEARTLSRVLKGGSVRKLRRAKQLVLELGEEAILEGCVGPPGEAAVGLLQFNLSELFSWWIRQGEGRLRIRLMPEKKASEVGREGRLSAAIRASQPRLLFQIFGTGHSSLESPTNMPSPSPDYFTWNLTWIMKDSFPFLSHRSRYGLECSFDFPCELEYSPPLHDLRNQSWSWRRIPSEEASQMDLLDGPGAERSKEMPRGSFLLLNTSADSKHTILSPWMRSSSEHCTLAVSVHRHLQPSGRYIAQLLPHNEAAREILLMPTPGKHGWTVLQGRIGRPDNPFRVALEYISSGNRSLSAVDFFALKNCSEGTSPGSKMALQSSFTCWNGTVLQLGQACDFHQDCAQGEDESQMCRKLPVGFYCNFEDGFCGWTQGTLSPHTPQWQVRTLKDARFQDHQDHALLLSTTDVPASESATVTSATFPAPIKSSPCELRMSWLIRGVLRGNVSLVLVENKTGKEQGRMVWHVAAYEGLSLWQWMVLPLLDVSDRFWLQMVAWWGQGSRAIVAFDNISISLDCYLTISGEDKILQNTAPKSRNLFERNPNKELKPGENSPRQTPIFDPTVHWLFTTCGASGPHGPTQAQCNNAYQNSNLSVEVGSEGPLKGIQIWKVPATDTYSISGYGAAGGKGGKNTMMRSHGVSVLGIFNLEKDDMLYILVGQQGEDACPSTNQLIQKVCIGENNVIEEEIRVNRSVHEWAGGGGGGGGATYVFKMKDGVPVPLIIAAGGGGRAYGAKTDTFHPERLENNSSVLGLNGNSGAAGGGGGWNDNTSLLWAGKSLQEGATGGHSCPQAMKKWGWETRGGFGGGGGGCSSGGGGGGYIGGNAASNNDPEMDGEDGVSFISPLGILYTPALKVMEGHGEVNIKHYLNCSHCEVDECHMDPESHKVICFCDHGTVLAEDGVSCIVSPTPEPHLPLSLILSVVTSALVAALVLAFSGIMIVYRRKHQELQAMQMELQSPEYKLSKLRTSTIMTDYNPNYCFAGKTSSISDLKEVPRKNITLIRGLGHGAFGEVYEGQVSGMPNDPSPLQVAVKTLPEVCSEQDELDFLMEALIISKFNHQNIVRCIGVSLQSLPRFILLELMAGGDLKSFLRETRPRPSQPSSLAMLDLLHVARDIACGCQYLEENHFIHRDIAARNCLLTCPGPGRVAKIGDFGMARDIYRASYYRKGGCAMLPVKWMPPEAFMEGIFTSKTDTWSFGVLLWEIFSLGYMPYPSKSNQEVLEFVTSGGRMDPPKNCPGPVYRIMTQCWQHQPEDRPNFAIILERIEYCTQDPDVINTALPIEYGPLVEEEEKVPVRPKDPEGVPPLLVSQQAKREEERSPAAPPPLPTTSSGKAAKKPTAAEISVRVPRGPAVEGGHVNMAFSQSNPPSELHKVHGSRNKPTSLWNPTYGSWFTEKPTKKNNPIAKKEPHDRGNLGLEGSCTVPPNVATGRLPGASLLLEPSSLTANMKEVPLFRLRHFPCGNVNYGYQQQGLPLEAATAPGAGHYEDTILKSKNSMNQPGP
Data analysis was performed using ActivityBase (IDBS, Guilford, UK). IC50 values were calculated by plotting percent inhibition versus log10 of the concentration of compound and fitting to the nonlinear regression sigmoidal dose-response (variable slope) equation in XLFit (IDBS, Guilford, UK).
For orientation: In an ELISA, binding on a coated surface is turned into a signal by an enzyme label.

A word on the IC50: it is the concentration that gives 50% inhibition. On to `Cc1cc(N2CCN(C(=O)c3ccc(-c4cnc5c(c4)N(Cc4cc(Cl)ccc4C(F)(F)F)CCN5)cc3)CC2)c2ccccc2n1` [Example 403, (4-{1-[5-Chloro-2-(trifluoromethyl)benzyl]-1,2,3,4-tetrahydropyrido[2,3-b]pyrazin-7-yl}phenyl)-[4-(2-methylquinolin-4-yl)piperazin-1-yl]methanone], for which the IC50 is below 100 nM.
As for `COc1ccc(CNC(=O)c2cccc(-c3cnc4c(c3)N(Cc3cc(Cl)ccc3C(F)(F)F)CCN4)c2)cc1` [Example 354, 3-{1-[5-Chloro-2-(trifluoromethyl)benzyl]-1,2,3,4-tetrahydropyrido[2,3-b]pyrazin-7-yl}-N-(4-methoxybenzyl)benzamide], the figure is 100 to 1000 nM.
Regarding `COc1ccccc1CN(C)C(=O)c1ccc(-c2cnc3c(c2)N(Cc2cc(Cl)ccc2C(F)(F)F)CCN3)cc1` [Example 432, 4-{1-[5-Chloro-2-(trifluoromethyl)benzyl]-1,2,3,4-tetrahydropyrido[2,3-b]pyrazin-7-yl}-N-(2-methoxybenzyl)-N-methylbenzamide], the IC50 fell in the range of 100 to 1000 nM.
As for `O=C(c1ccc(-c2cnc3c(c2)N(Cc2cc(Cl)ccc2C(F)(F)F)CCN3)cc1)N1CCN(C(=O)C2CCCO2)CC1` (stereo not shown) [Example 415, (4-{1-[5-Chloro-2-(trifluoromethyl)benzyl]-1,2,3,4-tetrahydropyrido[2,3-b]pyrazin-7-yl}phenyl)-[4-(tetrahydrofuran-2-carbonyl)piperazin-1-yl]methanone], the figure is below 100 nM.
For `COc1cccc(CNC(=O)c2ccc(-c3cnc4c(c3)N(Cc3cc(Cl)ccc3C(F)(F)F)CCN4)cc2)c1` [Example 418, 4-{1-[5-Chloro-2-(trifluoromethyl)benzyl]-1,2,3,4-tetrahydropyrido[2,3-b]pyrazin-7-yl}-N-(3-methoxybenzyl)benzamide] the value was 100 to 1000 nM.
For `O=C(NCc1cccnc1)c1cccc(-c2cnc3c(c2)N(Cc2cc(Cl)ccc2C(F)(F)F)CCN3)c1` [Example 335, 3-{1-[5-Chloro-2-(trifluoromethyl)benzyl]-1,2,3,4-tetrahydropyrido[2,3-b]pyrazin-7-yl}-N-pyridin-3-ylmethylbenzamide] the value was 100 to 1000 nM.
On to `O=C(NCc1cc(C(F)(F)F)cc(C(F)(F)F)c1)c1ccc(-c2cnc3c(c2)N(Cc2cc(Cl)ccc2C(F)(F)F)CCN3)cc1` [Example 397, N-[3,5-Bis(trifluoromethyl)benzyl]-4-{1-[5-Chloro-2-(trifluoromethyl)benzyl]-1,2,3,4-tetrahydropyrido[2,3-b]pyrazin-7-yl}benzamide], for which the IC50 was 100 to 1000 nM.
For `O=C(NCc1csc(-c2ccccc2)n1)c1cccc(-c2cnc3c(c2)N(Cc2cc(Cl)ccc2C(F)(F)F)CCN3)c1` [Example 340, 3-{1-[5-Chloro-2-(trifluoromethyl)benzyl]-1,2,3,4-tetrahydropyrido[2,3-b]pyrazin-7-yl}-N-(2-phenylthiazol-4-ylmethyl)benzamide] the value was 100 to 1000 nM; for `O=C(c1ccc(-c2cnc3c(c2)N(Cc2cc(Cl)ccc2C(F)(F)F)CCN3)cc1)N1CCC(c2ccccc2)CC1` [Example 375, (4-{1-[5-Chloro-2-(trifluoromethyl)benzyl]-1,2,3,4-tetrahydropyrido[2,3-b]pyrazin-7-yl}phenyl)-(4-phenylpiperidin-1-yl)methanone], 100 to 1000 nM; for `NS(=O)(=O)c1ccc(CNC(=O)c2cccc(-c3cnc4c(c3)N(Cc3cc(Cl)ccc3C(F)(F)F)CCN4)c2)cc1` [Example 363, 3-{1-[5-Chloro-2-(trifluoromethyl)benzyl]-1,2,3,4-tetrahydropyrido[2,3-b]pyrazin-7-yl}-N-(4-sulfamoylbenzyl)benzamide], 100 to 1000 nM.
As for `O=C(NCc1ccccc1)c1cccc(-c2cnc3c(c2)N(Cc2cc(Cl)ccc2C(F)(F)F)CCN3)c1` [Example 356, N-Benzyl-3-{1-[5-Chloro-2-(trifluoromethyl)benzyl]-1,2,3,4-tetrahydropyrido[2,3-b]pyrazin-7-yl}benzamide], the figure is 100 to 1000 nM; as for `O=C(NCc1ccccc1Cl)c1ccc(-c2cnc3c(c2)N(Cc2cc(Cl)ccc2C(F)(F)F)CCN3)cc1` [Example 412, N-(2-Chlorobenzyl)-4-{1-[5-chloro-2-(trifluoromethyl)benzyl]-1,2,3,4-tetrahydropyrido[2,3-b]pyrazin-7-yl}benzamide], 100 to 1000 nM.
As for `O=C(c1cccc(-c2cnc3c(c2)N(Cc2cc(Cl)ccc2C(F)(F)F)CCN3)c1)N1CCN(c2ccc(Cl)c(Cl)c2)CC1` [Example 317, (3-{1-[5-Chloro-2-(trifluoromethyl)benzyl]-1,2,3,4-tetrahydropyrido[2,3-b]pyrazin-7-yl}phenyl)-[4-(3,4-dichlorophenyl)piperazin-1-yl]methanone], the figure is 100 to 1000 nM; as for `O=C(c1ccc(-c2cnc3c(c2)N(Cc2cc(Cl)ccc2C(F)(F)F)CCN3)cc1)N1CCC(c2c[nH]c3ccccc23)CC1` [Example 376, (4-{1-[5-Chloro-2-(trifluoromethyl)benzyl]-1,2,3,4-tetrahydropyrido[2,3-b]pyrazin-7-yl}phenyl)-[4-(1H-indol-3-yl)piperidin-1-yl]methanone], 100 to 1000 nM.
As for `NS(=O)(=O)c1ccc(CNC(=O)c2ccc(-c3cnc4c(c3)N(Cc3cc(Cl)ccc3C(F)(F)F)CCN4)cc2)cc1` [Example 429, 4-{1-[5-Chloro-2-(trifluoromethyl)benzyl]-1,2,3,4-tetrahydropyrido[2,3-b]pyrazin-7-yl}-N-(4-sulfamoylbenzyl)benzamide], the IC50 lay within 100 to 1000 nM.
For `O=C(c1cccc(-c2cnc3c(c2)N(Cc2cc(Cl)ccc2C(F)(F)F)CCN3)c1)N1CCC(c2c[nH]c3ccccc23)CC1` [Example 314, (3-{1-[5-Chloro-2-(trifluoromethyl)benzyl]-1,2,3,4-tetrahydropyrido[2,3-b]pyrazin-7-yl}phenyl)-[4-(1H-indol-3-yl)piperidin-1-yl]methanone] the value was 100 to 1000 nM; for `O=C(c1ccc(-c2cnc3c(c2)N(Cc2cc(Cl)ccc2C(F)(F)F)CCN3)cc1)N1CCN(CCc2ccccc2)CC1` [Example 424, (4-{1-[5-Chloro-2-(trifluoromethyl)benzyl]-1,2,3,4-tetrahydropyrido[2,3-b]pyrazin-7-yl}phenyl)-(4-phenethylpiperazin-1-yl)methanone], 100 to 1000 nM.
For `O=C(NCc1cccnc1)c1ccc(-c2cnc3c(c2)N(Cc2cc(Cl)ccc2C(F)(F)F)CCN3)cc1` [Example 401, 4-{1-[5-Chloro-2-(trifluoromethyl)benzyl]-1,2,3,4-tetrahydropyrido[2,3-b]pyrazin-7-yl}-N-pyridin-3-ylmethylbenzamide], the half-maximal inhibitory concentration (IC50) was in the range of 100 to 1000 nM.
As for `O=C(c1ccc(-c2cnc3c(c2)N(Cc2cc(Cl)ccc2C(F)(F)F)CCN3)cc1)N1CCN(Cc2ccc(Cl)cc2)CC1` [Example 383, [4-(4-Chlorobenzyl)piperazin-1-yl]-(4-{1-[5-chloro-2-(trifluoromethyl)benzyl]-1,2,3,4-tetrahydropyrido[2,3-b]pyrazin-7-yl}phenyl)methanone], the figure is 100 to 1000 nM; as for `O=C(c1ccc(-c2cnc3c(c2)N(Cc2cc(Cl)ccc2C(F)(F)F)CCN3)cc1)N1CCC(c2noc3cc(F)ccc23)CC1` [Example 387, (4-{1-[5-Chloro-2-(trifluoromethyl)benzyl]-1,2,3,4-tetrahydropyrido[2,3-b]pyrazin-7-yl}phenyl)-[4-(6-fluorobenzo[d]isoxazol-3-yl)-piperidin-1-yl]methanone], 100 to 1000 nM; as for `CN1CCC(NC(=O)c2ccc(-c3cnc4c(c3)N(Cc3cc(Cl)ccc3C(F)(F)F)CCN4)cc2)CC1` [Example 393, 4-{1-[5-Chloro-2-(trifluoromethyl)benzyl]-1,2,3,4-tetrahydropyrido[2,3-b]pyrazin-7-yl}-N-(1-methylpiperidin-4-yl)benzamide], below 100 nM.
As for `O=C(c1ccc(-c2cnc3c(c2)N(Cc2cc(Cl)ccc2C(F)(F)F)CCN3)cc1)N1CCOCC1` [Example 408, (4-{1-[5-Chloro-2-(trifluoromethyl)benzyl]-1,2,3,4-tetrahydropyrido[2,3-b]pyrazin-7-yl}phenyl)morpholin-4-ylmethanone], the figure is 100 to 1000 nM.
As for `O=C(NCCc1ccccn1)c1ccc(-c2cnc3c(c2)N(Cc2cc(Cl)ccc2C(F)(F)F)CCN3)cc1` [Example 388, 4-{1-[5-Chloro-2-(trifluoromethyl)benzyl]-1,2,3,4-tetrahydropyrido[2,3-b]pyrazin-7-yl}-N-(2-pyridin-2-yl-ethyl)benzamide], the IC50 lay within 100 to 1000 nM.
For `O=C(NCc1ccc(C(F)(F)F)cc1)c1ccc(-c2cnc3c(c2)N(Cc2cc(Cl)ccc2C(F)(F)F)CCN3)cc1` [Example 396, 4-{1-[5-Chloro-2-(trifluoromethyl)benzyl]-1,2,3,4-tetrahydropyrido[2,3-b]pyrazin-7-yl}-N-[4-(trifluoromethyl)benzyl]benzamide] the value was 100 to 1000 nM; for `O=C(c1ccc(-c2cnc3c(c2)N(Cc2cc(Cl)ccc2C(F)(F)F)CCN3)cc1)N1CCN(c2ccccc2Cl)CC1` [Example 426, [4-(2-Chlorophenyl)piperazin-1-yl]-(4-{1-[5-chloro-2-(trifluoromethyl)benzyl]-1,2,3,4-tetrahydropyrido[2,3-b]pyrazin-7-yl}phenyl)methanone], 100 to 1000 nM.
